Assay results taken from ChEMBL document CHEMBL4190187, “Discovery of pyrazolopyrimidine derivatives as novel inhibitors of ataxia telangiectasia and rad3 related protein (ATR)” (Bioorg Med Chem Lett, 2017).

What was measured:
[1] = target: Serine/threonine-protein kinase PAK 6 (Homo sapiens) (UniProt Q9NQU5); assay: Inhibition of recombinant human PAK6 (382 to end residues) at 1 uM using RRRLSFAEPG as substrate after 40 mins in presence of [gamma-33P]ATP by scintillation counting method
[2] = target: NUAK family SNF1-like kinase 1 (Homo sapiens) (UniProt O60285); assay: Inhibition of recombinant human ARK5 (2 to end residues) at 1 uM using KKKVSRSGLYRSPSMPENLNRPR as substrate after 40 mins in presence of [gamma-33P]ATP by scintillation counting method
Sequence of NUAK family SNF1-like kinase 1 (Homo sapiens) (O60285 whole entry, the tested form may be a part): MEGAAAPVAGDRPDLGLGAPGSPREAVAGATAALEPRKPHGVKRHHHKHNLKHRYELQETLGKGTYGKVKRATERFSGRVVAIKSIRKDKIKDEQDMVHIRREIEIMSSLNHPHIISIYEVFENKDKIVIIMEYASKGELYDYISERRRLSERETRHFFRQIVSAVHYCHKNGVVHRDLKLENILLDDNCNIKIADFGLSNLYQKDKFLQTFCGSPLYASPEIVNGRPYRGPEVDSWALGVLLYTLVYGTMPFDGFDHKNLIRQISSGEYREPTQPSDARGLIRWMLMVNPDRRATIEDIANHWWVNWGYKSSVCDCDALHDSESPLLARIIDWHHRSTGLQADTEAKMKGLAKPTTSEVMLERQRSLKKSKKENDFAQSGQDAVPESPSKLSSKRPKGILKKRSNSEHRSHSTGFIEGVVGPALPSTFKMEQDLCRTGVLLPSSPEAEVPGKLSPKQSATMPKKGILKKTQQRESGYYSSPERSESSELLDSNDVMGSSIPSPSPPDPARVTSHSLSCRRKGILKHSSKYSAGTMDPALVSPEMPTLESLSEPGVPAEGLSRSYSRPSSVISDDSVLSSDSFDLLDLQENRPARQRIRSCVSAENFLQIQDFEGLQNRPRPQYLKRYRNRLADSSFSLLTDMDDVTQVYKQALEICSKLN

[3] = target: Mitogen-activated protein kinase kinase kinase kinase 2 (Homo sapiens) (UniProt Q12851); assay: Inhibition of recombinant human GCK (1 to 473 residues) at 1 uM using myelin basic protein as substrate after 40 mins in presence of [gamma-33P]ATP by scintillation counting method
[4] = target: Serine/threonine-protein kinase A-Raf (Homo sapiens) (UniProt P10398); assay: Inhibition of recombinant human A-Raf (273 to end residues) at 1 uM using myelin basic protein as substrate after 40 mins in presence of [gamma-33P]ATP by scintillation counting method
Sequence of Serine/threonine-protein kinase A-Raf (Homo sapiens) (P10398 whole entry, the tested form may be a part): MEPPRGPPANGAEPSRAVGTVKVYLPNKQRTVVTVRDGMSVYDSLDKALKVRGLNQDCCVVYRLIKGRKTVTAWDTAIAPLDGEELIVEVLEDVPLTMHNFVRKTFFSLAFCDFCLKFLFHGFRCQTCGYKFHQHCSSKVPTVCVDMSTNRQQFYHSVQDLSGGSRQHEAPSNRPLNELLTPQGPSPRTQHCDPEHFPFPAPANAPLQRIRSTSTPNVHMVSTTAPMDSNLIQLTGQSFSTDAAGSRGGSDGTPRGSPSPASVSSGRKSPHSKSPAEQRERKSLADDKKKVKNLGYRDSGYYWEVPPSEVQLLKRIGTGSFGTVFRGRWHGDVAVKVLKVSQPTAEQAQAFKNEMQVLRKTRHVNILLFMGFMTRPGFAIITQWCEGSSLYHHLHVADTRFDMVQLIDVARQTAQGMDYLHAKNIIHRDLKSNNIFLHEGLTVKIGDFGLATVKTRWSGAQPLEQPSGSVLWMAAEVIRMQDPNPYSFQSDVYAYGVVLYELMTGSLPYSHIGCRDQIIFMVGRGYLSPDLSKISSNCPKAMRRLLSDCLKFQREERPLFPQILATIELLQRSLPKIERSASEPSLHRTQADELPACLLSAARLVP

[5] = target: Serine/threonine-protein kinase PLK3 (Homo sapiens) (UniProt Q9H4B4); assay: Inhibition of recombinant human Plk3 (19 to 301 residues) at 1 uM using casein as substrate after 40 mins in presence of [gamma-33P]ATP by scintillation counting method
[6] = target: Serine/threonine-protein kinase N1 (Homo sapiens) (UniProt Q16512); assay: Inhibition of recombinant human PRK1 (498 to end residues) at 1 uM using KKLNRTLSFAEPG as substrate after 40 mins in presence of [gamma-33P]ATP by scintillation counting method
Sequence of Serine/threonine-protein kinase N1 (Homo sapiens) (Q16512 2-942 limits assumed): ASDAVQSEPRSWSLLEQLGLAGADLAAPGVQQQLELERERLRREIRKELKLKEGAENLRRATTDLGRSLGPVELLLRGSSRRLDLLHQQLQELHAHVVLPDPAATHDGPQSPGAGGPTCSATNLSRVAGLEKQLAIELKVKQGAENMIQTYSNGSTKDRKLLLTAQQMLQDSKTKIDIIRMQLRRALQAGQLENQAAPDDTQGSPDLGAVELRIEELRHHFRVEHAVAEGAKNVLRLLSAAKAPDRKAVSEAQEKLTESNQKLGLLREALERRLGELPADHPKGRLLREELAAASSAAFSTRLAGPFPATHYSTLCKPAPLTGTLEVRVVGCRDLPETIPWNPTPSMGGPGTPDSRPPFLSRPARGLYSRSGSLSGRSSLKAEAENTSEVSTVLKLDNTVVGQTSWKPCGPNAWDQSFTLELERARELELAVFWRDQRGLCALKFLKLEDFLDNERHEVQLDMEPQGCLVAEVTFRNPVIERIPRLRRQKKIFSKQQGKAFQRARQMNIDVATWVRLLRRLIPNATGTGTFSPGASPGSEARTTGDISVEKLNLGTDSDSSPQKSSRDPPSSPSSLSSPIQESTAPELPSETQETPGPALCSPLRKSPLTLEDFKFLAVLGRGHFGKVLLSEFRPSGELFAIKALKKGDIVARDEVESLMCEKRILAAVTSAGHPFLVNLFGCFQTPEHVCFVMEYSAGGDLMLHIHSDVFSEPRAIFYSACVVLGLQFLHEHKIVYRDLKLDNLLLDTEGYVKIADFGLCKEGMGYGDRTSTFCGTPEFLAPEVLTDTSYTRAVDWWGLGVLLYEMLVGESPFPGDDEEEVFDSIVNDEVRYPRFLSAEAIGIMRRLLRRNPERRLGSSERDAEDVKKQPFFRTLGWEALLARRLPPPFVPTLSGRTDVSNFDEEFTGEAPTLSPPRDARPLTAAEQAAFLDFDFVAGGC

[7] = test system: Mitogen-activated protein kinase 14 (Homo sapiens), Q16539 [T106M]; assay: Inhibition of recombinant full-length human SAPK2a T106M mutant at 1 uM using myelin basic protein as substrate after 40 mins in presence of [gamma-33P]ATP by scintillation counting method
Sequence of Mitogen-activated protein kinase 14 (Homo sapiens), Q16539 [T106M] (Q16539 whole entry T106M): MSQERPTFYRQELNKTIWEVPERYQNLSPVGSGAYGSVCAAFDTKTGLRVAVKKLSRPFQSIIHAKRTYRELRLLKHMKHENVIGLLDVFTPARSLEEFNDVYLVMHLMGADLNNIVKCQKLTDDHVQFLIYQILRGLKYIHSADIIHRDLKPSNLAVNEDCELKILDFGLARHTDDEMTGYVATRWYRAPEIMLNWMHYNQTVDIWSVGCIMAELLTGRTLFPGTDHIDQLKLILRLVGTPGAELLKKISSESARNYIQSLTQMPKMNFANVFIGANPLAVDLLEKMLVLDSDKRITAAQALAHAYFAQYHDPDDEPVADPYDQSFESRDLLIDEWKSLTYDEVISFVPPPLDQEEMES

[8] = target: MAP kinase-interacting serine/threonine-protein kinase 2 (Homo sapiens) (UniProt Q9HBH9); assay: Inhibition of recombinant full-length human Mnk2 at 1 uM using myelin basic protein as substrate after 40 mins in presence of [gamma-33P]ATP by scintillation counting method
[9] = target: Death-associated protein kinase 2 (Homo sapiens) (UniProt Q9UIK4); assay: Inhibition of recombinant full-length human DAPK2 at 1 uM using […] after 40 mins in presence of [gamma-33P]ATP by scintillation counting method
Sequence of Death-associated protein kinase 2 (Homo sapiens) (Q9UIK4 whole entry, looked up): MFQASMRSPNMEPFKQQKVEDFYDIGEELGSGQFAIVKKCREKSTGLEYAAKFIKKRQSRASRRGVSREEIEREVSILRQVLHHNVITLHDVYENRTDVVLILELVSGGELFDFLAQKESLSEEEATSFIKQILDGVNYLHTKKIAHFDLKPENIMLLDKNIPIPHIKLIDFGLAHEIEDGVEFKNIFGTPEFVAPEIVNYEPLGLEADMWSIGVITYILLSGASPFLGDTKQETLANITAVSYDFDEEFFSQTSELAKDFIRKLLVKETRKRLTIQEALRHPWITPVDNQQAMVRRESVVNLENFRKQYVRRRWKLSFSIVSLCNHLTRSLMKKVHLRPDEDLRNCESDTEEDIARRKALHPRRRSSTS

[10] = target: Rhodopsin kinase GRK7 (Homo sapiens) (UniProt Q8WTQ7); assay: Inhibition of recombinant full-length human GRK7 at 1 uM using casein as substrate after 40 mins in presence of [gamma-33P]ATP by scintillation counting method
Sequence of Rhodopsin kinase GRK7 (Homo sapiens) (Q8WTQ7 whole entry): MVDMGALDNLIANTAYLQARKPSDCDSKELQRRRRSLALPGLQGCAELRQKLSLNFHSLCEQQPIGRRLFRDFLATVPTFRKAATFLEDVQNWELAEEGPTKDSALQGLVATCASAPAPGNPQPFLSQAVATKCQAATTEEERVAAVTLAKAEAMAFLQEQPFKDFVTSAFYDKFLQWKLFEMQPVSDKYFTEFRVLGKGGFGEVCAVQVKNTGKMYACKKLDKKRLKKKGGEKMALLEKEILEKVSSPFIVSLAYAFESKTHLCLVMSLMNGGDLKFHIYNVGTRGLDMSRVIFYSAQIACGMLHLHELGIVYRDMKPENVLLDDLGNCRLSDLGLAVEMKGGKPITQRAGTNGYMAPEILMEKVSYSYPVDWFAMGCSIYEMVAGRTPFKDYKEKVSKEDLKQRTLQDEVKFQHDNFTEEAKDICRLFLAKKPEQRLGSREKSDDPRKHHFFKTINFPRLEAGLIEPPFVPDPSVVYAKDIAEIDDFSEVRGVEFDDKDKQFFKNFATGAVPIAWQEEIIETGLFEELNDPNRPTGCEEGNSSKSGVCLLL

[11] = target: Ribosomal protein S6 kinase alpha-2 (Homo sapiens) (UniProt Q15349); assay: Inhibition of recombinant full-length human Rsk3 at 1 uM using KKKNRTLSVA as substrate after 40 mins in presence of [gamma-33P]ATP by scintillation counting method
Sequence of Ribosomal protein S6 kinase alpha-2 (Homo sapiens) (Q15349 whole entry): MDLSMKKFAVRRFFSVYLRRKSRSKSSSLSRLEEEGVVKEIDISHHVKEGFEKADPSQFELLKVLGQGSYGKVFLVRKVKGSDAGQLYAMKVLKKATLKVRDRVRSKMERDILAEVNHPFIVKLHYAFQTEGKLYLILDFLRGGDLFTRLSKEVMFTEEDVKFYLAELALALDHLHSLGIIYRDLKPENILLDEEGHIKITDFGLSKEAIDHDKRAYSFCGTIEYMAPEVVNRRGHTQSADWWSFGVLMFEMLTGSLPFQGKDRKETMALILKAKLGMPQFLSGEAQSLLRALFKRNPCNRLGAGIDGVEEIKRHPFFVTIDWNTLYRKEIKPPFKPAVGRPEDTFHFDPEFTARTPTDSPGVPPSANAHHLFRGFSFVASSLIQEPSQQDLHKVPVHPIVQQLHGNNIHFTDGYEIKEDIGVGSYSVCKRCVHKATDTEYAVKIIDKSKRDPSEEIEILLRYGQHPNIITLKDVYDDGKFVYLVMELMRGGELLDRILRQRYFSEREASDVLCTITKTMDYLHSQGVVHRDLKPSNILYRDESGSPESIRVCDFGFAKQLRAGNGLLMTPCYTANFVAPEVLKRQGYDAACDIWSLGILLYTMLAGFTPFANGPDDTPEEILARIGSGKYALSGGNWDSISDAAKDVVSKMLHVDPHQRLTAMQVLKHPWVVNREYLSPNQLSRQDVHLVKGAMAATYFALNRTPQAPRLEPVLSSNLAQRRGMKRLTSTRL

[12] = target: Tyrosine-protein kinase Blk (Homo sapiens) (UniProt P51451); assay: Inhibition of recombinant full-length human Blk at 1 uM using poly(Glu,Tyr) 4:1 as substrate after 40 mins in presence of [gamma-33P]ATP by scintillation counting method
[13] = target: MAP/microtubule affinity-regulating kinase 4 (Homo sapiens) (UniProt Q96L34); assay: Inhibition of recombinant full-length human MARK4 at 1 uM using KKKVSRSGLYRSPSMPENLNRPR as substrate after 40 mins in presence of [gamma-33P]ATP by scintillation counting method
[14] = target: MAP kinase-activated protein kinase 2 (Homo sapiens) (UniProt P49137); assay: Inhibition of recombinant human MAPKAPK2 (46 to end residues) at 1 uM using KKLNRTLSVA as substrate after 40 mins in presence of [gamma-33P]ATP by scintillation counting method
[15] = target: Casein kinase II subunit alpha (Homo sapiens) (UniProt P68400); assay: Inhibition of recombinant full-length human CK2alpha1 at 1 uM using RRRDDDSDDD as substrate after 40 mins in presence of [gamma-33P]ATP by scintillation counting method
[16] = target: Tyrosine-protein kinase TXK (Homo sapiens) (UniProt P42681); assay: Inhibition of recombinant human Txk (256 to end residues) at 1 uM using GEEPLYWSFPAKKK as substrate after 40 mins in presence of [gamma-33P]ATP by scintillation counting method
[17] = target: SRSF protein kinase 2 (Homo sapiens) (UniProt P78362); assay: Inhibition of recombinant human SRPK2 (46 to end residues) at 1 uM using RSRSRSRSRSRSRSR as substrate after 40 mins in presence of [gamma-33P]ATP by scintillation counting method
[18] = target: Serine/threonine-protein kinase NLK (Homo sapiens) (UniProt Q9UBE8); assay: Inhibition of recombinant human NLK (121 to end residues) at 1 uM using myelin basic protein as substrate after 40 mins in presence of [gamma-33P]ATP by scintillation counting method
[19] = target: Mitogen-activated protein kinase kinase kinase 3 (Homo sapiens) (UniProt Q99759); assay: Inhibition of recombinant full-length human MEKK3 at 1 uM using MBP as substrate after 40 mins in presence of [gamma-33P]ATP by scintillation counting method
[20] = target: Cyclin-dependent kinase 2/cyclin E1 (Homo sapiens) (UniProt P24864+P24941); assay: Inhibition of recombinant full-length human CDK2/Cyclin E at 1 uM using histone H1 as substrate after 40 mins in presence of [gamma-33P]ATP by scintillation counting method; assay type: protein-complex assay
[21] = target: PI3K p110 delta/p85 alpha (Mus musculus) (UniProt P26450+O35904); assay: Inhibition of recombinant full-length mouse p110d/p85a at 1 uM using phosphatidylinositol 4,5-bisphosphate as substrate after 40 mins in presence of [gamma-33P]ATP by scintillation counting method; assay type: protein-complex assay
[22] = target: Proto-oncogene tyrosine-protein kinase Src (Homo sapiens) (UniProt P12931); assay: Inhibition of recombinant full-length human cSRC at 1 uM using KVEKIGEGTYGVVYK (Cdc2 peptide) as substrate after 40 mins in presence of [gamma-33P]ATP by scintillation counting method
Sequence of Proto-oncogene tyrosine-protein kinase Src (Homo sapiens) (P12931 2-536 limits assumed): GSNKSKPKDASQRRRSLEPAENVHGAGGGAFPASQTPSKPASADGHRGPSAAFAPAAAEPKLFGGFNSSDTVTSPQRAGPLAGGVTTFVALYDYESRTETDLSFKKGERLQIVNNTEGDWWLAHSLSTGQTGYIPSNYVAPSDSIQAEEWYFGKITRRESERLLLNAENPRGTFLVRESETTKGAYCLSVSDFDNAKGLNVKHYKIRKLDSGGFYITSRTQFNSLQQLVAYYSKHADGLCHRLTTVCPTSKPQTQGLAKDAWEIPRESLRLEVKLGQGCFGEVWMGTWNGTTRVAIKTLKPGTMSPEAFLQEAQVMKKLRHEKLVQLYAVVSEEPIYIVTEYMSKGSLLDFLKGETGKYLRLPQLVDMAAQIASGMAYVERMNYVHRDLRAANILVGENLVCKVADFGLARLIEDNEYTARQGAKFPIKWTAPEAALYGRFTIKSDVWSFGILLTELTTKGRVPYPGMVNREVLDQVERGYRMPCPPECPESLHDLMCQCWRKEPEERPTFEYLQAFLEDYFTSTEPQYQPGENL

[23] = target: Proto-oncogene tyrosine-protein kinase Src (Homo sapiens) (UniProt P12931); assay: Inhibition of recombinant human Src (1 to 530 residues) at 1 uM using GGEEEEYFELVKKKK as substrate after 40 mins in presence of [gamma-33P]ATP by scintillation counting method
[24] = target: CDK6/cyclin D3 (Homo sapiens) (UniProt P30281+Q00534); assay: Inhibition of recombinant full-length human CDK6/Cyclin D3 at 1 uM using histone H1 as substrate after 40 mins in presence of [gamma-33P]ATP by scintillation counting method; assay type: protein-complex assay

CS(=O)(=O)c1ccc(-n2nc(-c3cnc4[nH]ccc4c3)c3c(N)ncnc32)cc1
inhibition [1]: 7%
inhibition [2]: 15%
inhibition [3]: 52%
inhibition [4]: -10%
inhibition [5]: 3%
inhibition [6]: -1%
inhibition [7]: 0%
inhibition [8]: -6%
inhibition [9]: 4%
inhibition [10]: -3%
inhibition [11]: -8%
inhibition [12]: 40%
inhibition [13]: -3%
inhibition [14]: -4%
inhibition [15]: 19%
inhibition [16]: 78%
inhibition [17]: 0%
inhibition [18]: 18%
inhibition [19]: 9%
inhibition [20]: 3%
inhibition [21]: 27%
inhibition [22]: 53%
inhibition [23]: 64%
inhibition [24]: -6%
